Values of other authors in patent US4981695A, “Composition comprising L-dopa” (priority 1986, dated 1991).

Tests used:
Parkinsons disease = conditions: particularly tremor; background
[1] = background

For N[C@@H](Cc1ccc(O)c(O)c1)C(=O)O [L-dopa, L-3,4-dihydroxyphenylalanine], the “inhibition of symptoms of the Parkinsons disease” value (Parkinsons disease) is given as “active at the inhibition of symptoms of the Parkinsons disease”, the “decomposition by carboxylic elimination” value [1] is given as “rapidly decomposed by carboxylic elimination” and the “resorption (absorption window)” value ([1]; gastro-intestinal tract) is given as “resorbed over a restricted part of the gastro-intestinal tract”.
For C[C@@](Cc1ccc(O)c(O)c1)(NN)C(=O)O [carbidopa], the “L-dopa dose on adding a decarboxylase inhibitor” value [1] is listed as “considerably reduced”.
For NC(CO)C(=O)NNCc1ccc(O)c(O)c1O (centres unmarked) [benserazide], the “L-dopa dose on adding a decarboxylase inhibitor” value [1] is listed as “considerably reduced”.
